Columns and labels:
[1] = Visual cloudiness of surfactant formulation with added agent after 20:1 dilution with water; format: physicochemical; set-up: key: Samples that appeared cloudy (turbid) within less than a day were noted as cloudy (“Yes”); Samples that did not appear cloudy (turbid) within less than a day were noted as not cloudy (“No”); conditions: 0.5 g formula, 10 ml deionized water; for Cloudy at 1:20 dilution at 2%, 4%, and/or 6%: Table 3, visual, within less than a day; for Added at 2%: cloudy at 20:1 dilution: agent at 2%; for Added at 4%: cloudy at 20:1 dilution: agent at 4%; for Added at 6%: cloudy at 20:1 dilution: agent at 6%; for Added at 8%: cloudy at 20:1 dilution: agent at 8%
Protocol: Now referring to Tables 3 and 4, the following surfactant formulations were made by mixing 1.6% perfume, 24% sodium undecyl sulfate (CAS#1072-24-8) active, 6% lauramidopropyl betaine (CAS#4292-10-8) active, and 60.4% deionized water which leaves 8% unfilled for the addition of the listed agents (the balance being filled in by distilled water). The agents were added at a percentage of 2%, 4%, 6%, and 8% into the above surfactant formulation. The resulting formulations were vortexed and put into oven at 60° C. overnight to form homogeneous solution. For all formulations, the surfactant, water and additives, including the added agents, were expected to be in a single phase.
The resulting formulations were weighed out in a scintillation vial combined with 10 ml of water to achieve a representative dilution during use: 0.5 g formula, 10 ml deionized water for 20:1 dilution. After the combination of the ingredients, the vial was vigorously shaken by hand and the samples were visually inspected by looking at the solution against a dark background. Samples that appeared cloudy (turbid) within less than a day were noted as cloudy (“Yes”). […] Samples that appeared cloudy at the 20:1 dilution for any of the 2%, 4% or 6% concentration of oil may be most desirable by requiring a limited amount of the agent to be added, limiting cost and trade-offs associated with higher levels.
The appearance of a cloudy formulation at 1:20 dilution at 2%, 4%, and/or 6% can signal improved deposition of surfactant soluble active agents during consumer use.

[2] = Kinematic viscosity at 40 C of surfactant base formulation with added agent (Cannon viscometer); format: physicochemical; conditions: for Lowest viscosity achieved (cSt): Table 1, base formulation 24% sodium undecyl sulfate, 6% lauramidopropyl betaine, 1.6% perfume, agent at 2%, 4%, 6%, 8%, 40° C.; for Kinematic viscosity at 40 C. [cSt], 2% oil: agent added at 2% to base formulation; for Kinematic viscosity at 40 C. [cSt], 4% oil: agent added at 4% to base formulation; for Kinematic viscosity at 40 C. [cSt], 6% oil: agent added at 6% to base formulation; for Kinematic viscosity at 40 C. [cSt], 8% oil: agent added at 8% to base formulation
Excerpt: Referring to Tables 1 and 2, the base formulations were made by mixing 1.6% perfume, 24% sodium undecyl sulfate (CAS#1072-24-8) active, 6% lauramidopropyl betaine (CAS#4292-10-8) active and 60.4% deionized water which leaves 8% unfilled for the addition of a viscosity reducing agent (the balance being filled in by distilled water). For all compositions, the surfactant, water and additives including viscosity reducing agents were expected to be in a single phase.
The agents from Tables 1 and 2 were added to the base formulation at a percentage of 2%, 4%, 6%, and 8% into the above surfactant solution. The subsequent formulations were vortexed and put into oven at 60° C. overnight to form homogeneous solution. The viscosities of the formulations were measured with calibrated viscometers (Size 200/350/450) from Cannon Instrument Company (2139 High Tech Road, State College, Pa., USA, 16803).
After the equilibration, the formulations were drawn to reach the starting mark with a rubber suction bulb and the flow time between the starting mark and end mark was recorded for calculation. Each formulation was measured three times to calculate average and standard deviation. Between samples, viscometer was cleaned with water and acetone to rinse off residual.
Viscosity values were calculated based on the equation:
Viscosity (mm^2/s·(cSt))=Time (s)*Constant (mm^2/s^2·(cSt/s))
The time in the above equation is the flow time recorded in the experiment and the constant numbers for each calibrated viscometer were obtained from the manuals. […]
The viscosities of the formulations are measured with calibrated viscometers (Size 200/350/450) from Cannon Instrument Company (2139 High Tech Road, State College, Pa., USA, 16803). Prior to the measurement, the formulations are equilibrated in the viscometer reservoir for 30 min at 40° C. in water bath to ensure a homogeneous temperature is reached in the system. […]

| Structure (SMILES) | Cloudy at 1:20 dilution at 2%, 4%, and/or 6% [1] | Added at 2%: cloudy at 20:1 dilution [1] | Added at 4%: cloudy at 20:1 dilution [1] | Added at 6%: cloudy at 20:1 dilution [1] | Added at 8%: cloudy at 20:1 dilution [1] | Lowest viscosity achieved (cSt) [2] [cSt] | Kinematic viscosity at 40 C. [cSt], 2% oil [2] [cSt] | Kinematic viscosity at 40 C. [cSt], 4% oil [2] [cSt] | Kinematic viscosity at 40 C. [cSt], 6% oil [2] [cSt] | Kinematic viscosity at 40 C. [cSt], 8% oil [2] [cSt] |
| --- | --- | --- | --- | --- | --- | --- | --- | --- | --- | --- |
| CC1=CCC(C(C)C)=CC1 [gamma-Terpinene] | Yes | No | No | Yes | Yes | 32 | 238.0 | 65.0 | 31.7 |  |
| CCCCCCCC(OC)OC [1,1-Dimethoxyoctane] |  |  |  |  |  | 308 | 500.7 | 308.1 |  |  |
| C=CC(C)(CCC=C(C)C)OC(=O)C(C)C (stereo not shown) [Linalyl Iso Butyrate] | Yes | No | No | Yes | Yes | 38 | 223.4 | 73.0 | 37.7 | 39.9 |
| CC(C)CCOC(=O)c1ccccc1O [Isoamyl Salicylate] | Yes | No | Yes |  |  | 193 | 460.3 | 193.2 |  |  |
| CC(=O)CCc1ccc(O)cc1 [Raspberry Ketone] |  |  |  |  |  | 33 | 151.9 | 107.4 | 54.0 | 33.0 |
| CCO [Ethanol] |  |  |  |  |  | 29 | 205.6 | 111.0 | 50.8 | 29.2 |
| CC(=O)OCCC(C)CCC=C(C)C (stereo not shown) [Citronellyl Acetate] | No | No |  |  |  | 363 | 362.7 |  |  |  |
| CC(=O)OCCC(C)CCCC(C)C (stereo not shown) [3,7-Dimethyloctyl Acetate] | No | No |  |  |  | 446 | 445.7 |  |  |  |
| CC(C)=CCC/C(C)=C/COC(=O)Cc1ccccc1 [Geranyl Phenyl Acetate] | Yes | Yes | Yes | Yes | Yes | 34 | 224.0 | 76.0 | 34.3 | 36.6 |
| COC(C)(C)C1CC=C(C)CC1 (stereo not shown) [Orange Flower Ether] |  |  |  |  |  | 419 | 552.2 | 418.8 |  |  |
| CC(CC=O)CCCC(C)(C)O (stereo not shown) [Hydroxycitronellal] |  |  |  |  |  | 34 | 310.8 | 145.4 | 65.9 | 34.1 |
| CCCCCCCCCCCCCCCC [Hexadecane] | No | No | No |  |  | 18 | 21.1 | 18.1 |  |  |
